We go through 9 compounds from publication PMC8745710, “Biological Evaluation and Molecular Docking Studies of Novel 1,3,4-Oxadiazole Derivatives of 4,6-Dimethyl-2-sulfanylpyridine-3-carboxamide” (International Journal of Molecular Sciences, 2022).

The subject of series [1] is LoVo (colon adenocarcinoma). The experiment in a line: MTT assay, LoVo. It counts as cell-based. The note with it: Homo sapiens, 48 h incubation, read-out: IC50 [µM] ± SD LoVo. The text has this: (§1) The MTT (3-[4,5-dimethylthiazol-2-yl]-2,5-diphenyl tetrazolium bromide) assay was used to determine the cytotoxicity of tested compounds towards different cell lines: normal human dermal fibroblasts (NHDF), kidney epithelial cells (VERO), fibroblasts from Chinese hamster lung (V79) and four human cancer cells: A549 (pulmonary basal cell alveolar adenocarcinoma), MCF-7 (breast adenocarcinoma), LoVo (colon adenocarcinoma), and its drug resistant subline LoVo/Dx. The cell lines used in this study express COX-1 and COX-2. The LoVo line expressed COX-1, the LoVo/Dx subline express both COX-1 and COX-2 [61].
(§2) Each cell line was grown in the culture media recommended by supplier. Before the test they were detached with trypsin/EDTA solution, then to neutralize the effect of Trypsin/EDTA solution, FBS containing medium was used. After centrifugation the cells were stained with 0.4% solution of trypan blue, counted and inspected for viability using microscope. In the end, cells were inserted into 96-well culture plates and incubated in CO2 incubator (37 °C, 24 h). The number of cells was 2 × 10^3 cells per well. The tested compounds with different concentrations (5, 10, 20, 50, 100 µM) were dissolved in DMSO and then added to the cells (the final DMSO concentration was 0.1%). The cultures were incubated for another 48 h. After that time the cells were collected to be used in tests.
(§3) MTT assay was used to find out how tested compounds influence the metabolic activity of investigated cell lines. The cells were incubated with tested compounds. After removing of supernatant, 1 mg/mL of MTT solution in MEM was added to the plate (to each well) and then the plates were incubated at 37 °C for 2 h. The medium was removed again, and formazan crystals were dissolved in isopropanol. A Varioscan LUX microplate reader (Thermo Fisher Scientific, Waltham, MA, USA) was used to measure absorbance at 570 nm.

In series [2] the target is T1, COX-2 (Homo sapiens, UniProt P35354).
T1 construct: purchased Cayman Chemical Company, Ann Arbor, MI, USA
T1 sequence (P35354 18-604): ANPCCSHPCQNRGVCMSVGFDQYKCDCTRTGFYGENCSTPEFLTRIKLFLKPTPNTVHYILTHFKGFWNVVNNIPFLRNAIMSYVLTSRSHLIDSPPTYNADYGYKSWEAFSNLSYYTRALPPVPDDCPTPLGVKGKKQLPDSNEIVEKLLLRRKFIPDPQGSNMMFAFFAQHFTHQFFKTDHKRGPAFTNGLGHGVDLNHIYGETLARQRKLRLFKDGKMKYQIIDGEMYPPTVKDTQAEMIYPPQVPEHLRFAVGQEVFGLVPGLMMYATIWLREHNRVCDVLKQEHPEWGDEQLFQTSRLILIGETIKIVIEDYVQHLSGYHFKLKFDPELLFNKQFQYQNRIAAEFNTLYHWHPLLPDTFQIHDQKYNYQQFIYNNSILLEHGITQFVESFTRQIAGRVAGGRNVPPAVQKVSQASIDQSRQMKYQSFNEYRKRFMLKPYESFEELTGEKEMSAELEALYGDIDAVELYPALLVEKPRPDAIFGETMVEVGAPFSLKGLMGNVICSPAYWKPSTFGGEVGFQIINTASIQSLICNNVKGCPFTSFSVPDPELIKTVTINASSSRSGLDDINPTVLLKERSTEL
In words: COX colorimetric inhibitor screening assay, COX-2. As to conditions: for IC50 [µM] ± SD COX-2 / IC50: after 2 min of incubation, n = 5; for IC50: read-out: IC50 [µM] ± SD COX-2; for COX-2/COX-1 Selectivity Ratio: ratio of IC50 COX-2 / IC50 COX-1. It is filed as biochemical. The text has this: The compounds were studied for their potencies to inhibit COX-1 and COX-2 enzymes by the colorimetric inhibitor screening assay.
A COX Colorimetric Inhibitor Screening Assay Kit, produced by Cayman Chemical Company, Ann Arbor, MI, USA, was used. It used the colorimetric monitoring of oxidized form of TMPD (N,N,N′,N′-tetramethyl-p-phenylenediamine) which was produced during reduction of prostaglandin G2 (PGG2) to PGH2. […] Reagents used it this assay were: COX-1 and COX-2 enzymes, Tris-HCl buffer, solutions of heme in DMSO and TMPD, arachidonic acid, KOH. To be sure that 100% enzymatic activity was achieved each sample was measured 3 times. The probes were measured after two minutes of incubation with tested compounds in the comparison to the initial activity of enzyme.

In series [3] the test system is LoVo cell line. In words: Intracellular ROS level (DCFH-DA), LoVo cells. It is filed as cell-based. The note with it: Homo sapiens, 4 h, compound 100 μM. The protocol:
Two cell lines were chosen for investigations: V79 (Chinese hamster lung fibroblasts) and LoVo. V79 normal cells are widely used as the cell line tested in the studies of the oxidative stress. These cells are a living system model to explain the mechanism of ROS effects caused by varied compounds [73].
First, the tested compounds (in concentration of 100 μM) were added to the cell cultures and cells were incubated for 4 h. Then cells were washed and incubated with DCFH-DA (non-fluorescent probe) in dark at 37 °C for 2 h at CO2 [79]. Non-fluorescent, non-polar DCFH-DA (2′7′-dichlorodihydrofluorescein diacetate) at concentration of 25 μM was used as a marker of oxidative stress to determine the intracellular ROS levels. […] In this time, DCFH-DA which penetrated into the cells, was hydrolyzed by esterases to polar, non-fluorescent DCFH (2′7′-dichlorodihydrofluorescein) and then oxidized in the presence of ROS (reactive oxygen species) to fluorescent DCF (2′7′-dichlorofluorescein). DCF was measured using Varioscan LUX microplate reader (Thermo Fisher Scientific, Waltham, MA, USA) at λex = 485 nm and λem = 535 nm.
E is the culture with the tested compound and E0 is the negative control without the compound. The routine statistical methods: two-way analysis of variance ANOVA as well as Tukey’s post-hoc test were used. It allowed us to determine the statistical significance of results, where p < 0.05 was set as significant. The statistical indicators were estimated using Statistica 13.3 software.

For series [4], the system named is V79 (fibroblasts from Chinese hamster lung). In words: MTT assay, V79. It counts as cell-based. The note with it: Cricetulus griseus, Fibroblast, 48 h incubation, read-out: IC50 [µM] ± SD V79.
Text: as §1, §2, §3

[5] abbreviates: with H2O2 (100 μM, 30 min), n = 5, read-out: ROS scavenging activity, Mean E/E0 ± SD, with H2O2.
[6] abbreviates: without H2O2, n = 5, read-out: ROS scavenging activity, Mean E/E0 ± SD, without H2O2.

Like-named read-outs stand apart in the source and are kept apart here.

On to `CSc1ccc(/C=N\NC(=O)Cn2nc(CNC(=O)c3c(C)cc(C)nc3S)oc2=S)cc1` [Compound 8, 4,6-Dimethyl-N-{[4-(2-(2-(4-methysulfanylbenzylidene)hydrazinyl)-2-oxoethyl)-5-sulfanylidene-4,5-dihydro-1,3,4-oxadiazole-2-yl]methyl}-2-sulfanylpyridine-3-carboxamide], for which the melting point was in the range of 235 to 238 °C. For the same compound, in series [1], the IC50 is 3.6 ± 0.55 µM. Also, in series [2], the “IC50 [µM] ± SD COX-2” value was “showed only COX-1 inhibitory activity”. Also, in series [3] (setting [5]), the activity at 100 µM was 80 ± 22%. The activity at 100 µM in series [3] (setting [6]) came to 65 ± 20%. Further, in series [4], the IC50 turned out to be 71.1 ± 2.4 µM.
For the compound `Cc1ccc(C=NNC(=O)Cn2nc(CNC(=O)c3c(C)cc(C)nc3S)oc2=S)cc1` [Compound 7, 4,6-Dimethyl-N-{[4-(2-(2-(4-methylbenzylidene)hydrazinyl)-2-oxoethyl)-5-sulfanylidene-4,5-dihydro-1,3,4-oxadiazole-2-yl]methyl}-2-sulfanylpyridine-3-carboxamide], the melting point lay within 215 to 220 °C. Besides, the IC50 in series [1] stood at 3.46 ± 0.39 µM. For the same compound, in series [2], the IC50 came to 184 ± 18.8 µM and the “COX-2/COX-1 Selectivity Ratio” value came to 1.25. In series [3] (setting [5]), the activity at 100 µM is 95 ± 27%. Besides, the activity at 100 µM in series [3] (setting [6]) stood at 107 ± 38%. Besides, the IC50 in series [4] was found to be 47.7 ± 1.73 µM.
`Cc1cc(C)c(C(=O)NCc2nn(CC(=O)NN)c(=S)o2)c(S)n1` [Compound 4, N-{[4-(2-hydrazinyl-2-oxoethyl)-5-sulfanylidene-4,5-dihydro-1,3,4-oxadiazol-2-yl]methyl}-4,6-dimethyl-2-sulfanylpyridine-3-carboxamide]: the melting point was in the range of 201 to 205 °C. Further, the IC50 in series [1] was found to be 3.01 ± 0.2 µM. The “IC50 [µM] ± SD COX-2” value in series [2] is on record as “showed only COX-1 inhibitory activity”. Also, the activity at 100 µM in series [3] (setting [5]) was determined as 83 ± 8%. In addition, the activity at 100 µM in series [3] (setting [6]) was 69 ± 33%. In series [4], the IC50 was determined as 71.7 ± 5.8 µM.
For `Cc1cc(C)c(C(=O)NCc2nn(CC(=O)NN=Cc3ccccc3Br)c(=S)o2)c(S)n1` [Compound 13, 4,6-Dimethyl-N-{[4-(2-(2-(2-bromobenzylidene)hydrazinyl)-2-oxoethyl)-5-sulfanylidene-4,5-dihydro-1,3,4-oxadiazole-2-yl]methyl}-2-sulfanylpyridine-3-carboxamide], the melting point is 285 to 288 °C. The IC50 in series [1] amounted to 2.89 ± 0.08 µM. The IC50 in series [2] was found to be 73.2 ± 5.66 µM. The activity at 100 µM in series [3] (setting [5]) is 69 ± 10%. In series [3] (setting [6]), the activity at 100 µM is 70 ± 30%. Further, the 50% inhibitory concentration (IC50) in series [4] was determined as 65.4 ± 4.04 µM.
In turn, `Cc1cc(C)c(C(=O)NCc2nn(CC(=O)NN=Cc3ccc(Cl)cc3)c(=S)o2)c(S)n1` [Compound 10, 4,6-Dimethyl-N-{[4-(2-(2-(4-chlorobenzylidene)hydrazinyl)-2-oxoethyl)-5-sulfanylidene-4,5-dihydro-1,3,4-oxadiazole-2-yl]methyl}-2-sulfanylpyridine-3-carboxamide] gave a melting point of 278 to 280 °C. The IC50 in series [1] stood at 3.12 ± 0.23 µM. In addition, in series [2], the IC50 was determined as 128 ± 1.87 µM. Also, in series [3] (setting [5]), the activity at 100 µM came out at 91 ± 14%. In addition, the activity at 100 µM in series [3] (setting [6]) came out at 85 ± 27%. The half-inhibitory concentration (IC50) in series [4] was 56.1 ± 5.42 µM.
As to `Cc1cc(C)c(C(=O)NCc2nn(CC(=O)NN=Cc3ccccc3)c(=S)o2)c(S)n1` [Compound 5, 4,6-Dimethyl-N-{[4-(2-(2-benzylidenehydrazinyl)-2-oxoethyl)-5-sulfanylidene-4,5-dihydro-1,3,4-oxadiazol-2-yl]methyl}-2-sulfanylpyridine-3-carboxamide], the melting point fell in the range of 236 to 239 °C. In series [1], the IC50 was determined as 3.13 ± 0.17 µM. For the same compound, in series [2], the IC50 came out at 187 ± 15.3 µM and the “COX-2/COX-1 Selectivity Ratio” value came out at 2.53. For the same compound, in series [3] (setting [5]), the activity at 100 µM stood at 87 ± 21%. Also, the activity at 100 µM in series [3] (setting [6]) is 72 ± 21%. For the same compound, the IC50 in series [4] turned out to be 84.3 ± 3.4 µM.
`Cc1cc(C)c(C(=O)NCc2nn(CC(=O)NN=Cc3ccc(F)cc3)c(=S)o2)c(S)n1` [Compound 6, 4,6-Dimethyl-N-{[4-(2-(2-(4-fluorobenzylidene)hydrazinyl)-2-oxoethyl)-5-sulfanylidene-4,5-dihydro-1,3,4-oxadiazole-2-yl]methyl}-2-sulfanylpyridine-3-carboxamide] came in with a melting point of 295 to 298 °C. The IC50 in series [1] turned out to be 3.2 ± 0.26 µM. Moreover, in series [2], the IC50 came to 174 ± 5.84 µM and the “COX-2/COX-1 Selectivity Ratio” value amounted to 1.20. For the same compound, the activity at 100 µM in series [3] (setting [5]) was determined as 88 ± 4%. For the same compound, the activity at 100 µM in series [3] (setting [6]) was found to be 74 ± 22%. Further, the IC50 in series [4] is 80.7 ± 5.6 µM.
On to `Cc1cc(C)c(C(=O)NCc2nn(CC(=O)NN=Cc3ccc(C#N)cc3)c(=S)o2)c(S)n1` [Compound 9, 4,6-Dimethyl-N-{[4-(2-(2-(4-cyanobenzylidene)hydrazinyl)-2-oxoethyl)-5-sulfanylidene-4,5-dihydro-1,3,4-oxadiazole-2-yl]methyl}-2-sulfanylpyridine-3-carboxamide], for which the melting point is 298 to 300 °C. Further, the IC50 in series [1] is 3.24 ± 0.1 µM. In addition, in series [2], the IC50 is 103 ± 10.6 µM and the “COX-2/COX-1 Selectivity Ratio” value is reported as 0.67. Also, in series [3] (setting [5]), the activity at 100 µM amounted to 91 ± 19%. Besides, the activity at 100 µM in series [3] (setting [6]) turned out to be 76 ± 22%. Besides, in series [4], the IC50 came to 77.7 ± 4.41 µM.
Compound `Cc1cc(C)c(C(=O)NCc2nn(CC(=O)NN=Cc3cccc(Cl)c3)c(=S)o2)c(S)n1` [Compound 12, 4,6-Dimethyl-N-{[4-(2-(2-(3-chlorobenzylidene)hydrazinyl)-2-oxoethyl)-5-sulfanylidene-4,5-dihydro-1,3,4-oxadiazole-2-yl]methyl}-2-sulfanylpyridine-3-carboxamide] registered a melting point of 273 to 275 °C. In series [1], the IC50 is 3.07 ± 0.21 µM. For the same compound, in series [2], the IC50 was 90.7 ± 19.6 µM and the “COX-2/COX-1 Selectivity Ratio” value came out at 1.36. Moreover, the activity at 100 µM in series [3] (setting [5]) is 79 ± 16%. For the same compound, the activity at 100 µM in series [3] (setting [6]) came to 91 ± 43%. In addition, the IC50 in series [4] stood at 52.8 ± 7.2 µM.
